Reference: patent US20120322726A1, “THERAPEUTIC AGENT FOR EATING DISORDERS” (MORINAGA MILK INDUSTRY CO., LTD., priority 2010, published 2012)

Assays:
[1] = system: KK-Ay mice; assay: Test Example 4: blood glucose level of hyperphagia model mice; assay type: in vivo
Excerpt: The object of this test was to confirm that the casein hydrolysate according to the present invention has an effect of decreasing the blood glucose level of the patient with hyperphagia.
The same one as in EXAMPLE 3 was used.
A commercially available livestock feed containing no protein from milk (Nihon Nosan, trade name: MR Stock) was used. As drinking water, tap water (city water) was used.
As animal model for hyperphagia, KK-Ay mice (male, 5 weeks old, CLEA Japan, Inc.) were used.
After pre-feeding with said livestock feed for 10 days, test animals were divided into 8 groups each including 8 animals so that they would have the nearly equal body weight and take the nearly equal amount of livestock feed. The animals of each group could take the livestock feed and water freely. During 5 days of one week, 0.5 ml of the sample was administered to each animal per day using a sonde. The test was performed for 5 weeks. The blood glucose level was determined once a week, using a glucose kit for self checking (Johnson & Johnson).
Relative blood glucose level is an average blood glucose level of each group when the average blood glucose level of the control group is considered 1.

[2] = system: KK-Ay mice; assay: Test Example 3: amount of livestock feed taken by hyperphagia model mice; assay type: in vivo
Experimental: The object of this test was to confirm that the casein hydrolysate according to the present invention has a therapeutic effect against the hyperphagia.
The product according to the present invention: The casein hydrolysate according to the present invention, prepared by the method described in EXAMPLE 1, was diluted with the distilled water so that the concentration of the hydrolysate would be 5 mg/ml.
The precipitate fraction: Sample 2 in the Test Example 1 was diluted with the distilled water into 5 mg/ml.
Whole casein hydrolysate: The rennet casein (Fonterra Co-operative Group Limited, protein content 80%) used in EXAMPLE 1 was digested with pepsin in the same way as in EXAMPLE 1, and then, without centrifuging, diluted with the distilled water for injection so that the concentration of the hydrolysate would be 5 mg/ml.
GMP (glycol-macropeptide): A commercially available GMP (MG Nutritionals) was diluted with the distilled water for injection so that the concentration of GMP would be 5 mg/ml. […]
After pre-feeding with said livestock feed for 10 days, test animals were divided into 8 groups each including 8 animals so that they would have the nearly equal body weight and take the nearly equal amount of livestock feed. […] The amount of livestock feed taken by the animal was determined once a week. […]

[3] = 5 mg/ml, 0.5 ml per day, 5 weeks after starting of administration

κ-casein: commercially available κ-casein (Sigma)
change of blood glucose level compared to the control [1, 3]: wasn't a significant effect
Relative blood glucose level 5 weeks later ([1]; Table 3 (text: relative blood glucose level), 0.5 ml of 5 mg/ml sample per day, 5 days of one week, 5 weeks, control group = 1, * p < 0.05): 0.934
change of amount of livestock feed taken compared to the control [2, 3]: wasn't a significant effect
Relative amount of livestock feed ingested 5 weeks later ([2]; 0.5 ml of 5 mg/ml sample per day by sonde, 5 days of one week, 5 weeks, control group = 1, * p < 0.05): 0.990
